Source: patent US8785655B2, “Ionic liquid solvents” (Dublin City University, priority 2009, dated 2014)

Columns and labels:
[1] = tested on: Candida albicans ATCC 90028; experiment: In vitro antifungal activity, MIC by microdilution (NCCLS M27-A)
Escherichia coli CCM4517 = experiment: Screen against bacteria, MIC/IC80; type: cell-based; details: EC
[2] = tested on: Pseudomonas aeruginosa CCM 1961; experiment: Screen against bacteria, MIC/IC80; type: cell-based; details: PA
[3] = tested on: Trichophyton mentagrophytes 445; experiment: In vitro antifungal activity, MIC by microdilution (NCCLS M27-A); details: TM
Method: (§1) In vitro antifungal activities of the compounds were evaluated on the collection of fungal strains deposited at the Department of Biological and Medical Sciences, Faculty of Pharmacy, Charles University, Czech Republic. All the isolates were maintained on Sabouraud dextrose agar prior to being tested.
(§2) Minimum inhibitory concentrations (MICs) were determined by the microdilution format of the NCCLS M27-A guidelines. […] RPMI 1640 (Sevapharma, Prague) medium supplemented with L-glutamine and buffered with 0.165 M morpholinepropanesulfonic acid to pH 7.0 was used as the test medium. The wells of the microdilution tray contained 100 μl of the RPMI 1640 medium with 2-fold serial dilutions of the compounds (1000 to 0.24 μmol/l for the new compounds) and 100 μl of inoculum suspension. Fungal inoculum in RPMI 1640 was prepared to give a final concentration of 5×103±0.2 cfu·ml-1. The trays were incubated at 35° C. and MICs were read visually for filamentous fungi and photometrically for yeasts as an optical density (OD) at 540 nm after 24 h and 48 h. The MICs were defined as 80% inhibition of the growth of control. MICs were determined twice and in duplicate. The deviations from the usually obtained were no higher than the nearest concentration value up and down the dilution scale.

[4] = tested on: Staphylococcus epidermidis H 6966/08; experiment: Screen against bacteria, MIC/IC80; type: cell-based; details: SE
[5] = tested on: Staphylococcus aureus H 5996/08 Methiciline-resistant; experiment: Screen against bacteria, MIC/IC80; type: cell-based; details: MRSA
[6] = tested on: Candida parapsilosis ATCC 22019; experiment: In vitro antifungal activity, MIC by microdilution (NCCLS M27-A); details: CP
Method: as §1, §2

[7] = tested on: Klebsiella pneumoniae D 11750/08; experiment: Screen against bacteria, MIC/IC80; type: cell-based; details: KP
Candida krusei E28 = experiment: In vitro antifungal activity, MIC by microdilution (NCCLS M27-A)
[8] = tested on: Candida albicans ATCC 44859; experiment: as above
Method: as §1, §2

[9] = tested on: Klebsiella pneumoniae J 14368/08 ESBL-positive; experiment: Screen against bacteria, MIC/IC80; type: cell-based; details: KP-E
[10] = tested on: Staphylococcus aureus CCM 4516/08; experiment: Screen against bacteria, MIC/IC80; type: cell-based; details: SA
Candida krusei ATCC 6258 = experiment: In vitro antifungal activity, MIC by microdilution (NCCLS M27-A)
[11] = tested on: Enterococcus sp. J 14365/08; experiment: Screen against bacteria, MIC/IC80; type: cell-based; details: EF
Candida tropicalis 156 = experiment: In vitro antifungal activity, MIC by microdilution (NCCLS M27-A); details: CT
Absidia corymbifera 272 = experiment: as above; details: AC
[12] = tested on: Aspergillus fumigatus 231; experiment: as above; details: AF
Candida glabrata 20/l = experiment: as above; details: CG
[13] = tested on: Candida lusitaniae 2446/l; experiment: as above; details: CL
Method: as §1, §2

Row | Compound | MIC/IC80 ([1]; CA2, 24 h) [µmol/L] | MIC/IC80 ([1]; CA2, 48 h) [µmol/L] | MIC/IC80 (Escherichia coli CCM4517; 24 h) [µmol/L] | MIC/IC80 (Escherichia coli CCM4517; 48 h) [µmol/L] | MIC/IC80 ([2]; 24 h) [µmol/L] | MIC/IC80 ([2]; 48 h) [µmol/L] | MIC/IC80 ([3]; 72 h) [µmol/L] | MIC/IC80 ([3]; 120 h) [µmol/L] | MIC/IC80 ([4]; 24 h) [µmol/L] | MIC/IC80 ([4]; 48 h) [µmol/L] | MIC/IC80 ([5]; 24 h) [µmol/L] | MIC/IC80 ([5]; 48 h) [µmol/L] | MIC/IC80 ([6]; 24 h) [µmol/L] | MIC/IC80 ([6]; 48 h) [µmol/L] | MIC/IC80 ([7]; 24 h) [µmol/L] | MIC/IC80 ([7]; 48 h) [µmol/L] | MIC/IC80 (Candida krusei E28; CK2, 24 h) [µmol/L] | MIC/IC80 (Candida krusei E28; CK2, 48 h) [µmol/L] | MIC/IC80 ([8]; CA1, 24 h) [µmol/L] | MIC/IC80 ([8]; CA1, 48 h) [µmol/L] | also measured
1 | COC(=O)[C@@H](OC(=O)C[n+]1ccn(C)c1)c1ccccc1 [KG91, S-3-methyl-1-[1-(methoxycarbonyl)-1-phenylmethoxycarbonylmethyl]imidazolium bromide] | >1000 | >1000 | >1000 | >1000 | >1000 | >1000 | >1000 | >1000 | >1000 | >1000 | >1000 | >1000 | >1000 | >1000 | >1000 | >1000 | >1000 | >1000 | >1000 | >1000 | MIC/IC80 ([9]; 24 h): >1000 µmol/L; MIC/IC80 ([9]; 48 h): >1000 µmol/L; MIC/IC80 ([10]; 24 h): >1000 µmol/L; MIC/IC80 ([10]; 48 h): >1000 µmol/L; MIC/IC80 (Candida krusei ATCC 6258; CK1, 24 h): >1000 µmol/L; MIC/IC80 (Candida krusei ATCC 6258; CK1, 48 h): >1000 µmol/L; MIC/IC80 ([11]; 24 h): >1000 µmol/L; MIC/IC80 ([11]; 48 h): >1000 µmol/L; MIC/IC80 (Candida tropicalis 156; 24 h): >1000 µmol/L; MIC/IC80 (Candida tropicalis 156; 48 h): >1000 µmol/L; MIC/IC80 (Absidia corymbifera 272; 24 h): >1000 µmol/L; MIC/IC80 (Absidia corymbifera 272; 48 h): >1000 µmol/L; MIC/IC80 ([12]; 24 h): >1000 µmol/L; MIC/IC80 ([12]; 48 h): >1000 µmol/L; MIC/IC80 (Candida glabrata 20/l; 24 h): >1000 µmol/L; MIC/IC80 (Candida glabrata 20/l; 48 h): >1000 µmol/L; MIC/IC80 ([13]; 24 h): >1000 µmol/L; MIC/IC80 ([13]; 48 h): >1000 µmol/L
2 | CCCCCOC(=O)[C@@H](C)OC(=O)C[n+]1ccn(C)c1 [KG159, R-3-methyl-1-[1-(pentoxycarbonyl)-1-methylmethoxycarbonylmethyl]imidazolium bromide] | >1000 | >1000 | >1000 | >1000 | >1000 | >1000 | >1000 | >1000 | >1000 | >1000 | >1000 | >1000 | >1000 | >1000 | >1000 | >1000 | >1000 | >1000 | >1000 | >1000 | MIC/IC80 ([9]; 24 h): >1000 µmol/L; MIC/IC80 ([9]; 48 h): >1000 µmol/L; MIC/IC80 ([10]; 24 h): >1000 µmol/L; MIC/IC80 ([10]; 48 h): >1000 µmol/L; MIC/IC80 (Candida krusei ATCC 6258; CK1, 24 h): >1000 µmol/L; MIC/IC80 (Candida krusei ATCC 6258; CK1, 48 h): >1000 µmol/L; MIC/IC80 ([11]; 24 h): >1000 µmol/L; MIC/IC80 ([11]; 48 h): >1000 µmol/L; MIC/IC80 (Candida tropicalis 156; 24 h): >1000 µmol/L; MIC/IC80 (Candida tropicalis 156; 48 h): >1000 µmol/L; MIC/IC80 (Absidia corymbifera 272; 24 h): >1000 µmol/L; MIC/IC80 (Absidia corymbifera 272; 48 h): >1000 µmol/L; MIC/IC80 ([12]; 24 h): >1000 µmol/L; MIC/IC80 ([12]; 48 h): >1000 µmol/L; MIC/IC80 (Candida glabrata 20/l; 24 h): >1000 µmol/L; MIC/IC80 (Candida glabrata 20/l; 48 h): >1000 µmol/L; MIC/IC80 ([13]; 24 h): >1000 µmol/L; MIC/IC80 ([13]; 48 h): >1000 µmol/L
3 | CCOCCOC(=O)C(C)OC(=O)Cn1cc[n+](C)c1.[Br-] (centres unmarked) [KG160, RS-3-methyl-1-[1-(ethoxyethoxycarbonyl)-1-methylmethoxycarbonylmethyl]imidazolium bromide] | >1000 | >1000 | >1000 | >1000 | >1000 | >1000 | >1000 | >1000 | >1000 | >1000 | >1000 | >1000 | >1000 | >1000 | >1000 | >1000 | >1000 | >1000 | >1000 | >1000 | MIC/IC80 ([9]; 24 h): >1000 µmol/L; MIC/IC80 ([9]; 48 h): >1000 µmol/L; MIC/IC80 ([10]; 24 h): >1000 µmol/L; MIC/IC80 ([10]; 48 h): >1000 µmol/L; MIC/IC80 (Candida krusei ATCC 6258; CK1, 24 h): >1000 µmol/L; MIC/IC80 (Candida krusei ATCC 6258; CK1, 48 h): >1000 µmol/L; MIC/IC80 ([11]; 24 h): >1000 µmol/L; MIC/IC80 ([11]; 48 h): >1000 µmol/L; MIC/IC80 (Candida tropicalis 156; 24 h): >1000 µmol/L; MIC/IC80 (Candida tropicalis 156; 48 h): >1000 µmol/L; MIC/IC80 (Absidia corymbifera 272; 24 h): >1000 µmol/L; MIC/IC80 (Absidia corymbifera 272; 48 h): >1000 µmol/L; MIC/IC80 ([12]; 24 h): >1000 µmol/L; MIC/IC80 ([12]; 48 h): >1000 µmol/L; MIC/IC80 (Candida glabrata 20/l; 24 h): >1000 µmol/L; MIC/IC80 (Candida glabrata 20/l; 48 h): >1000 µmol/L; MIC/IC80 ([13]; 24 h): >1000 µmol/L; MIC/IC80 ([13]; 48 h): >1000 µmol/L
4 | CCOCCOC(=O)[C@@H](C)OC(=O)C[n+]1ccn(C)c1 [KG161, R-3-methyl-1-[1-(ethoxyethoxycarbonyl)-1-methylmethoxycarbonylmethyl]imidazolium bromide] | >1000 | >1000 | >1000 | >1000 | >1000 | >1000 | >1000 | >1000 | >1000 | >1000 | >1000 | >1000 | >1000 | >1000 | >1000 | >1000 | >1000 | >1000 | >1000 | >1000 | MIC/IC80 ([9]; 24 h): >1000 µmol/L; MIC/IC80 ([9]; 48 h): >1000 µmol/L; MIC/IC80 ([10]; 24 h): >1000 µmol/L; MIC/IC80 ([10]; 48 h): >1000 µmol/L; MIC/IC80 (Candida krusei ATCC 6258; CK1, 24 h): >1000 µmol/L; MIC/IC80 (Candida krusei ATCC 6258; CK1, 48 h): >1000 µmol/L; MIC/IC80 ([11]; 24 h): >1000 µmol/L; MIC/IC80 ([11]; 48 h): >1000 µmol/L; MIC/IC80 (Candida tropicalis 156; 24 h): >1000 µmol/L; MIC/IC80 (Candida tropicalis 156; 48 h): >1000 µmol/L; MIC/IC80 (Absidia corymbifera 272; 24 h): >1000 µmol/L; MIC/IC80 (Absidia corymbifera 272; 48 h): >1000 µmol/L; MIC/IC80 ([12]; 24 h): >1000 µmol/L; MIC/IC80 ([12]; 48 h): >1000 µmol/L; MIC/IC80 (Candida glabrata 20/l; 24 h): >1000 µmol/L; MIC/IC80 (Candida glabrata 20/l; 48 h): >1000 µmol/L; MIC/IC80 ([13]; 24 h): >1000 µmol/L; MIC/IC80 ([13]; 48 h): >1000 µmol/L
